{"source": "patent US20050042280A1", "about": "“Aqueous based pharmaceutical formulations of water-soluble prodrugs of propofol” (priority 2001, published 2005)", "origin": "cited, not measured here", "settings": "anesthetic induction doses, Bryson et al., Drugs 50 (1995) at 520", "data": [{"smiles": "CC(C)c1cccc(C(C)C)c1O", "note": "[propofol, 2,6-diisopropylphenol]", "values": [{"measurement": "patients with respiratory consequences, including a reduction in tidal volume and apnea", "value": "up to 83%"}]}]}
